According to patent US10918648B2, “Estrogen receptor modulator combinations” (The Regents of the University of California, priority 2016, dated 2021):

What was measured:
[1] = tested on: A549 NSCLC cells; test: NSCLC cell proliferation in vitro (MTS assay); format: cell-based, human
[2] = tested on: MCF-7 parental cells; settings: MCF-7 parental xenografts in nude mice; cited from earlier work
[3] = tested on: MCF-7 breast cancer cells; test: MCF-7 breast cancer cell proliferation (BrdU ELISA) in presence of estradiol-17β; format: cell-based, human; settings: Homo sapiens, MCF7; 72 hrs in the presence of 1 nM estradiol-17β, BrdU ELISA; read-out: IC50 for inhibition of cell proliferation, MCF-7
Description: In experiments to assess potential proliferative effects of novel estrogen receptor ligands, human breast cancer cells were grown in phenol red-free, estrogen-free media with 1% dextran-coated charcoal-treated (DCC)-fetal bovine serum (FBS) for 48 hrs (15,44), then treated with either 1 μM or 50 μM doses of estrogen receptor antagonists in the presence of 1 nM estradiol-17β. Cell counts and viability tests (Trypan blue) were done every 24 hr for 3 days. After 72 hr, proliferation was assessed using the BrdU Cell proliferation ELISA (Roche). Cell numbers were also assessed initially by cell counts to confirm ELISA data. Each antiestrogen was tested at least in three different experiments.
In order to assess the antitumor action of novel estrogen receptor antagonists, we cultured human MCF-7 breast cancer cells with known expression of ERα. Cells were grown in 1% DCC-FBS for 48 hr and then treated with vehicle control or either 1 μM or 50 μM concentrations of antiestrogens JD 101-160 or the pure antiestrogen fulvestrant (FAS), all in the presence of 1 nM estradiol-170. […] Shown in FIG. 2A are results from MCF-7 cells grown in 1% DCC-FBS for 48 hr and then treated with vehicle control, 1 nM estradiol-170 and either 1 μM or 50 μM concentrations of antiestrogens JD 101-160 or the known pure antiestrogen fulvestrant (FAS) in the presence of 1 nM estradiol-170. Cell proliferation is expressed as percentage of that determined in the 1 nM estradiol-170-treated control group.
(§1) Cell proliferation assays: breast and lung tumor cells (between […]) were plated in 96 well plates using their respective medium with 10% FBS. For experiments using estradiol-17β, cells were rinsed with PBS and incubated with phenol redfree medium with 1% DCC-FBS for 48 hours as described before (24,25). Cells were then treated with different concentrations of SERDs ranging between 0.0001-100 μM. […] Cell counts and viability tests (Trypan blue) were done every 24 hr for 3 days. After 72 hr, proliferation was assessed with the MTS Assay CELLTITER 96® Aqueous Cell Proliferation Assay (Promega) or the Cell Proliferation ELISA, BrdU colorimetric assay (Roche). For the MTS, the absorbance of the formazan product was measured at 490 nanometer using the iMARK microplate reader from BIORAD. The BrdU ELISA assay is based on detection of BrdU incorporated into the genomic DNA of proliferating cells and an anti-BrdU antibody, the reaction product was quantified by measuring the absorbance at 370 nanometers using iMARK microplate reader from BIORAD. Cell numbers were also assessed initially by cell counts to confirm MTS/BrdU data. Experiments were done at least three times to confirm data.

[4] = tested on: H1975 NSCLC cells; test: NSCLC cell proliferation in vitro (MTS assay); format: cell-based, human; settings: Homo sapiens, NCI-H1975, SERD alone, 72 hours, estrogen-depleted phenol red-free medium with 5% DCC-FBS, read-out: IC50 for inhibition of NSCLC cell proliferation, H1975
Description: (§2) Cell culture: Human breast and non-small cell lung cancer cells (MCF7, ZR75-1, MDAMB231, A549, H23, H1975, […]) were from ATCC. MCF7-HER2 were a kind gift of Dr. Dennis Slamon (23). Cell lines were routinely maintained in RPMI 1640 or DMEM medium with 10% fetal bovine serum (FBS) (Sigma-Aldrich) and 1% Antibiotic-Antimycotic solution 100× (Mediatech, Herndon, Va.). When indicated, for estrogen-free conditions, media was changed 48 h before experiments to phenol-red free RPMI 1640/DMEM with 1% dextran-coated, charcoal-treated (DCC)-FBS (24,25). Otherwise experiments were performed in phenol-red free RPMI 1640/DMEM medium with 5% DCC-FBS.
as §1

[5] = tested on: H2122 NSCLC cells; test: NSCLC cell proliferation in vitro (MTS assay); format: cell-based, human; settings: Homo sapiens, NCI-H2122, SERD alone, 72 hours, estrogen-depleted phenol red-free medium with 5% DCC-FBS, read-out: IC50 for inhibition of NSCLC cell proliferation, H2122
Description: as §2, §1

[6] = tested on: MAPK: ERK-1 (p44) and ERK-2 (p42); test: Estrogen-induced MAPK phosphorylation, Western blot in MCF-7 cells; format: cell-based, human; settings: MCF-7 parent cells, 1 nM estradiol (E2); antagonists pre-incubated at 1000 nM; FIG. 7A
Description: ERD inhibition of phosphorylation of MAPK, at both extracellular signal-regulated kinases ERK-1 (p44) and ERK-2 (p42) and downstream effects. […] Thus, we measured estrogen-induced phosphorylation of MAPK by established methods (9,15,16). Briefly, MCF-7 parental cells were estrogen deprived for 48 hrs, then treated with 1 nM estradiol-1713 in the presence of new compounds (10 nM-10 μM) to be tested for antagonist activity. After treatments, cell lysates were separated by SDS-PAGE followed by Western blot using a polyclonal antibody directed to phospho-p44/p42 MAP kinase (Thr202/Tyr204) (Cell Signaling). Immunodetection with antibody against total p44/p42 (Cell Signaling) was done as a control for gel loading. […] ERD S15 was as effective as fulvestrant in inhibiting the rapid estrogen-induced MAPK phosphorylation in breast tumor cells in vitro. […] E2 but not vehicle (CN) induced rapid phosphorylation of ERK-1 (p44) and ERK-2 (p42). This activation was prevented when cells were pre-incubated with 1000 nM ICI 182,780 (ICI; Faslodex) or 1000 nM compound S15 in the presence of estradiol (E2).

[7] = tested on: MCF-7/HER-2 cells; settings: MCF-7 cells with HER2-overexpression, xenografts in nude mice; cited from earlier work
[8] = tested on: cyclin D1; test: Cyclin D1 expression, Western immunoblot in A549 NSCLC cells; format: cell-based, human; settings: 24 h, 1% DCC-FBS, letrozole 10 μM, FIG. 5B
Description: FIG. 5B. […] Cells were treated 24 h in phenol red-free RPMI with 1% DCC-FBS. Control (Con), estradiol-17β (E2; 1 nM), androstenedione (And; 1 nM), testosterone (Tst; 10 nM), letrozole (AI; 10 μM) and palbociclib (Plbo; 1 μM) were used in this experiment. GADPH is used as a loading control (20).

[9] = tested on: Rb serine-780; test: Rb serine-780 phosphorylation, Western blot in A549 cells; format: cell-based, human; settings: 24 h, 1% DCC-FBS, 1 nM E2, 1 nM androstenedione, 10 nM testosterone, 10 μM letrozole, 100 nM palbociclib, FIG. 4C
Description: FIG. 4C. […] Cells were treated 24 h in phenol red-free RPMI with 1% DCC-FBS with vehicle control (CON), 1 nM estradiol-17β (E2), 1 nM androstenedione (And), 10 nM testosterone (Tes), 10 μM letrozole (AI), 100 nM palbociclib (Plbo) or both Plbo+AI. After 24 hr, cell lysates subjected to Western blot with antibody to phosphoserine-780 Rb or total Rb (Cell Signaling) (20). GAPDH is used as loading control.
To investigate the antitumor efficacy of CDK 4/6 inhibitor palbociclib in NSCLC cells, we assessed the effects of palbociclib alone and in combination with the hormonal therapeutic letrozole (see FIGS. 4B and 5B). The potential mechanism of action of palbociclib and letrozole in NSCLC cells was investigated by assay of the effects of these agents alone and combined on phosphorylation of Rb serine-780

IC50 ([1]; Homo sapiens, A549, SERD alone, 72 hours, estrogen-depleted phenol red-free medium with 5% DCC-FBS, MTS assay, read-out: IC50 for inhibition of NSCLC cell proliferation, A549)	IC50 [3]	IC50 [4]	IC50 [5]	Structure (SMILES)	growth of parent tumors (xenografts) [2]	phosphorylation of MAPK (ERK-1 p44 and ERK-2 p42) [6]	sensitivity of MCF-7/HER-2 xenografts [7]	inhibition of NSCLC cell proliferation ([1]; A549, 72 hrs, single agents and palbociclib (10 or 100 nM)/letrozole (10 μM), FIG. 6B)	cyclin D1 expression [8]	phosphorylation of Rb serine-780 [9]
4160 nM	1110 nM	1880 nM	1290 nM	C[C@]12CC[C@@H]3c4ccc(O)cc4C[C@@H](CCCCCCCCC[S+]([O-])CCCC(F)(F)C(F)(F)F)[C@H]3[C@@H]1CC[C@@H]2O (stereo partly shown) [FULVEST, fulvestrant, reference compound]	suppressed	prevented	partially sensitive			
				N#Cc1ccc(C(c2ccc(C#N)cc2)n2cncn2)cc1 [letrozole]				dose-dependent inhibition	reduces cyclin D1 expression	block
